Measured values: ChEMBL document CHEMBL5150036, “Photoredox-based late-stage functionalization in SAR study for in vivo potent glucosylceramide synthase inhibitor” (Bioorg Med Chem Lett, 2022)

Key:
[1] = Unbound drug concentration in ICR mouse plasma at 10 mg/kg, po measured after 60 mins by LC-MS/MS analysis; assay type: ADME, organism-based; settings: in vivo, 1 h
[2] = Drug concentration in ICR mouse brain at 10 mg/kg, po measured after 60 mins by LC-MS/MS analysis; assay type: ADME, organism-based; settings: read-out: Ct
[3] = Metabolic stability in mouse liver microsomes assessed as intrinsic clearance at 1 uM in the presence of NADPH regenerating system by LC/MS/MS analysis; assay type: ADME, Microsome; settings: read-out: CLH
[4] = Unbound drug concentration in ICR mouse brain at 10 mg/kg, po measured after 60 mins by LC-MS/MS analysis; assay type: ADME, organism-based; settings: in vivo, 1 h
[5] = Unbound brain-to-plasma concentration ratio in ICR mouse at 10 mg/kg, po measured after 60 mins by LC-MS/MS analysis; assay type: ADME, organism-based; settings: read-out: K(p,uu,brain)
[6] = 1-Octanol/aqueous buffer partition coefficient, logD of the compound at pH 7.4 by chromatographic method; assay type: physicochemical
[7] = Drug concentration in ICR mouse plasma at 10 mg/kg, po measured after 60 mins by LC-MS/MS analysis; assay type: ADME, organism-based
[8] = Metabolic stability in human liver microsomes assessed as intrinsic clearance at 1 uM in the presence of NADPH regenerating system by LC/MS/MS analysis; assay type: ADME, Microsome; settings: read-out: CLH

Cp(f) [1] [nM]	concentration at 1 h [2] [ng/g]	microsomal CLint at 1 µM [3] [µL/min/mg]	Drug uptake(free) [4] [nM]	Kp uu at 1 h [5]	chromatographic logD [6]	concentration at 1 h [7] [ng/mL]	microsomal CLint at 1 µM [8] [µL/min/mg]	SMILES
		1			2.69			Cc1cc2c(c(-c3ccccc3OCC(F)F)n1)CN(c1ccc(C(C)(C)O)cc1)C2=O
					2.77		3	CC(C)(O)c1ccc(N2Cc3c(cc(C(C)(C)O)nc3-c3ccccc3OCC(F)F)C2=O)cc1
		1			3.69			CC(C)(O)c1ccc(N2Cc3c(cc(C(C)(C)F)nc3-c3ccccc3OCC(F)F)C2=O)cc1
					2.86			CC(C)(O)c1ccc(N2Cc3c(cc(C(F)F)nc3-c3ccccc3OCC(F)F)C2=O)cc1

The remaining lines, values behind:

SMILES	Cp(f) [1] [nM]	concentration at 1 h [2] [ng/g]	microsomal CLint at 1 µM [3] [µL/min/mg]	Drug uptake(free) [4] [nM]	Kp uu at 1 h [5]	chromatographic logD [6]	concentration at 1 h [7] [ng/mL]	microsomal CLint at 1 µM [8] [µL/min/mg]
Cc1cc2c(c(-c3ccccc3OCC(F)(F)F)n1)CN(c1ccc(C(C)(C)O)cc1)C2=O	387	1140	4	43	0.11	2.85	1940	
CC(C)(O)c1ccc(N2Cc3c(cc(C4(C)COC4)nc3-c3ccccc3OCC(F)(F)F)C2=O)cc1	17	17	52	0.7	0.04	2.9	76	33
CC(C)(O)c1ccc(N2Cc3c(ccnc3-c3ccccc3OCC(F)(F)F)C2=O)cc1			12			2.37		40
CC(C)(O)c1ccc(N2Cc3c(cc(C4CCOCC4)nc3-c3ccccc3OCC(F)F)C2=O)cc1			5			2.98		1
CC(C)(O)c1ccc(N2Cc3c(cc(C4CCCCC4)nc3-c3ccccc3OCC(F)F)C2=O)cc1			56			4.63		33
CN(C)C(=O)c1cc2c(c(-c3ccccc3OCC(F)F)n1)CN(c1ccc(C(C)(C)O)cc1)C2=O						1.85		
CC(C)(O)c1ccc(N2Cc3c(cc(C4(C)COC4)nc3-c3ccccc3OCC(F)F)C2=O)cc1	124	65	32	3.9	0.03	2.76	284	16
CC(C)(O)c1ccc(N2Cc3c(ccnc3-c3ccccc3OCC(F)F)C2=O)cc1			27			2.2		17
CC(C)(O)c1ccc(N2Cc3c(cc(C4CCCOC4)nc3-c3ccccc3OCC(F)F)C2=O)cc1 (racemic)			46			3.19		61
